Reference: patent US11452727B2, “Combination therapy for treating cancer” (Epizyme, Inc., priority 2017, dated 2022)

How the values were obtained:
Assay in all cases: In vitro combination study with tazemetostat, cell proliferation (Cell Titer Glo)
NCI-H2030 = conditions: 7 days tazemetostat pre-treatment, 6 days co-treatment with second agent
A427 = conditions: for combinatorial effect with tazemetostat (Loewe volume class): A427, 7 days tazemetostat pre-treatment, 6 days co-treatment with second agent
Protocol: (§1) Initial proliferation studies were performed to determine the IC50 of tazemetostat in each cell line. For the screen, tazemetostat was used at concentrations bracketed around the IC50 value. If 50% inhibitory concentration was not reached then tazemetostat was tested starting at 10 μM.
(§2) In order to study the effect of dual combination of tazemetostat and a second agent on cell proliferation, cells in log-linear phase growth rate were pre-treated with various concentrations of tazemetostat or DMSO for 7 days in flasks, plated in 384-well plates in the absence of compounds and co-treated on day 8 with tazemetostat or DMSO and the second agent serially diluted for additional 6 days (as depicted in FIG. 1). On day 15, plates were developed for endpoint analysis using Cell Titer Glo to measure ATP content, which was used as an indicator of cell viability. DMSO concentration was kept constant throughout the assay at 0.15% v/v.
(§3) All cell lines were obtained from American Type Culture Collection (ATCC; Rockville, Md.). […] A427, Calu-3, Calu-6 cell lines were cultured in EMEM+10% Fetal bovine serum (FBS)+1% v/v Penicillin/Streptomycin (P/S).

NCI-H838 = conditions: 7 days tazemetostat pre-treatment, 6 days co-treatment with second agent
A549 = conditions: 7 days tazemetostat pre-treatment, 6 days co-treatment with second agent
Protocol: as §1, §2

NCI-H1573 = conditions: 7 days tazemetostat pre-treatment, 6 days co-treatment with second agent
Protocol: as §1, §2
(§4) NCI-H1573 was cultured in DMEM: F12 Medium containing the following components: 0.02 mg/ml insulin, 0.01 mg/ml transferrin, 25 nM sodium selenite, 50 nM Hydrocortisone, 1 ng/ml Epidermal Growth Factor, 0.01 mM ethanolamine, 0.01 mM phosphorylethanolamine, 100 pM triiodothyronine, 0.5% (w/v) bovine serum albumin, 0.5 mM sodium pyruvate, 4.5 mM L-glutamine and 1% v/v Pen/Strep.

NCI-H1703 = conditions: 7 days tazemetostat pre-treatment, 6 days co-treatment with second agent
Protocol: as §1, §2

NCI-H2110 = conditions: 7 days tazemetostat pre-treatment, 6 days co-treatment with second agent
Protocol: as §1, §2

Calu-6 = conditions: 7 days tazemetostat pre-treatment, 6 days co-treatment with second agent
NCI-H2122 = conditions: 7 days tazemetostat pre-treatment, 6 days co-treatment with second agent
NCI-H1299 = conditions: 7 days tazemetostat pre-treatment, 6 days co-treatment with second agent
Protocol: as §1, §2

HCC827 = conditions: 7 days tazemetostat pre-treatment, 6 days co-treatment with second agent
Protocol: as §1, §2, §4

NCI-H661 = conditions: 7 days tazemetostat pre-treatment, 6 days co-treatment with second agent
Protocol: as §1, §2, §3

Calu-3 = conditions: 7 days tazemetostat pre-treatment, 6 days co-treatment with second agent
Protocol: as §1, §2, §4

NCI-H23 = conditions: 7 days tazemetostat pre-treatment, 6 days co-treatment with second agent
Protocol: as §1, §2, §3

NCI-H460 = conditions: 7 days tazemetostat pre-treatment, 6 days co-treatment with second agent
Protocol: as §1, §2, §3

NCI-H1793 = conditions: 7 days tazemetostat pre-treatment, 6 days co-treatment with second agent
NCI-H522 = conditions: 7 days tazemetostat pre-treatment, 6 days co-treatment with second agent
Protocol: as §1, §2

NCI-H1993 = conditions: 7 days tazemetostat pre-treatment, 6 days co-treatment with second agent

Compound | combinatorial effect with tazemetostat (Loewe volume class) (NCI-H2030) | combinatorial effect with tazemetostat (Loewe volume class) (A427) | combinatorial effect with tazemetostat (Loewe volume class) (NCI-H838) | combinatorial effect with tazemetostat (Loewe volume class) (A549) | combinatorial effect with tazemetostat (Loewe volume class) (NCI-H1573) | combinatorial effect with tazemetostat (Loewe volume class) (NCI-H1703) | combinatorial effect with tazemetostat (Loewe volume class) (NCI-H2110) | combinatorial effect with tazemetostat (Loewe volume class) (Calu-6) | combinatorial effect with tazemetostat (Loewe volume class) (NCI-H2122) | combinatorial effect with tazemetostat (Loewe volume class) (NCI-H1299) | combinatorial effect with tazemetostat (Loewe volume class) (HCC827) | combinatorial effect with tazemetostat (Loewe volume class) (NCI-H661) | combinatorial effect with tazemetostat (Loewe volume class) (Calu-3) | combinatorial effect with tazemetostat (Loewe volume class) (NCI-H23) | combinatorial effect with tazemetostat (Loewe volume class) (NCI-H460) | combinatorial effect with tazemetostat (Loewe volume class) (NCI-H1793) | combinatorial effect with tazemetostat (Loewe volume class) (NCI-H522) | combinatorial effect with tazemetostat (Loewe volume class) (NCI-H1993) | synergy with an EZH2 inhibitor (tazemetostat) (A427; A427 cells, dose matrix, Loewe excess matrix, isobologram (FIG. 2-5))
CCN1CCN(Cc2ccc(Nc3ncc(F)c(-c4cc(F)c5nc(C)n(C(C)C)c5c4)n3)nc2)CC1 [Abemaciclib, abemaciclib] | Syn. (Loewe volumes greater than 1 denoted “synergy”) | Syn. (Loewe volumes greater than 1 denoted “synergy”) | Add. (A value between −1 and 1 denoted “additivity”) | Add. (A value between −1 and 1 denoted “additivity”) | Add. (A value between −1 and 1 denoted “additivity”) | Add. (A value between −1 and 1 denoted “additivity”) | Add. (A value between −1 and 1 denoted “additivity”) | Syn. (Loewe volumes greater than 1 denoted “synergy”) | Anta. (volumes <−1 denoted “antagonism”) | Anta. (volumes <−1 denoted “antagonism”) | Add. (A value between −1 and 1 denoted “additivity”) | Syn. (Loewe volumes greater than 1 denoted “synergy”) | Add. (A value between −1 and 1 denoted “additivity”) | Add. (A value between −1 and 1 denoted “additivity”) | Add. (A value between −1 and 1 denoted “additivity”) | Syn. (Loewe volumes greater than 1 denoted “synergy”) | Add. (A value between −1 and 1 denoted “additivity”) | Syn. (Loewe volumes greater than 1 denoted “synergy”) | 
Nc1cc(C(F)(F)F)c(-c2cc(N3CCOCC3)nc(N3CCOCC3)n2)cn1 [BKM-120] | Add. (A value between −1 and 1 denoted “additivity”) | Syn. (Loewe volumes greater than 1 denoted “synergy”) | Syn. (Loewe volumes greater than 1 denoted “synergy”) | Add. (A value between −1 and 1 denoted “additivity”) | Add. (A value between −1 and 1 denoted “additivity”) | Add. (A value between −1 and 1 denoted “additivity”) | Add. (A value between −1 and 1 denoted “additivity”) | Add. (A value between −1 and 1 denoted “additivity”) | Add. (A value between −1 and 1 denoted “additivity”) | Add. (A value between −1 and 1 denoted “additivity”) | Add. (A value between −1 and 1 denoted “additivity”) | Syn. (Loewe volumes greater than 1 denoted “synergy”) | Add. (A value between −1 and 1 denoted “additivity”) | Syn. (Loewe volumes greater than 1 denoted “synergy”) | Add. (A value between −1 and 1 denoted “additivity”) | Syn. (Loewe volumes greater than 1 denoted “synergy”) | Add. (A value between −1 and 1 denoted “additivity”) | Syn. (Loewe volumes greater than 1 denoted “synergy”) | 
Cc1cc(Nc2ncc(Cl)c(Nc3ccccc3S(=O)(=O)C(C)C)n2)c(OC(C)C)cc1C1CCNCC1 [Ceritinib, ceritinib] | Add. (A value between −1 and 1 denoted “additivity”) | Syn. (Loewe volumes greater than 1 denoted “synergy”) | Syn. (Loewe volumes greater than 1 denoted “synergy”) | Add. (A value between −1 and 1 denoted “additivity”) | Syn. (Loewe volumes greater than 1 denoted “synergy”) | Add. (A value between −1 and 1 denoted “additivity”) | Add. (A value between −1 and 1 denoted “additivity”) | Add. (A value between −1 and 1 denoted “additivity”) | Anta. (volumes <−1 denoted “antagonism”) | Add. (A value between −1 and 1 denoted “additivity”) | Add. (A value between −1 and 1 denoted “additivity”) | Syn. (Loewe volumes greater than 1 denoted “synergy”) | Add. (A value between −1 and 1 denoted “additivity”) | Add. (A value between −1 and 1 denoted “additivity”) | Add. (A value between −1 and 1 denoted “additivity”) | Add. (A value between −1 and 1 denoted “additivity”) | Add. (A value between −1 and 1 denoted “additivity”) | Syn. (Loewe volumes greater than 1 denoted “synergy”) | synergy
N.N.[Cl][Pt][Cl] [Cisplatin, cisplatin] | Syn. (Loewe volumes greater than 1 denoted “synergy”) | Syn. (Loewe volumes greater than 1 denoted “synergy”) | Add. (A value between −1 and 1 denoted “additivity”) | Syn. (Loewe volumes greater than 1 denoted “synergy”) | Add. (A value between −1 and 1 denoted “additivity”) | No eff. | Add. (A value between −1 and 1 denoted “additivity”) | Add. (A value between −1 and 1 denoted “additivity”) | Anta. (volumes <−1 denoted “antagonism”) | No eff. | Add. (A value between −1 and 1 denoted “additivity”) | Syn. (Loewe volumes greater than 1 denoted “synergy”) | Syn. (Loewe volumes greater than 1 denoted “synergy”) | Add. (A value between −1 and 1 denoted “additivity”) | Add. (A value between −1 and 1 denoted “additivity”) | No eff. | Anta. (volumes <−1 denoted “antagonism”) | Syn. (Loewe volumes greater than 1 denoted “synergy”) | 
